From the NIST ThermoML archive (doi:10.1021/acs.jced.8b01004)

Experiment: xn = mol fraction of the nth substance listed
Conditions: 100 kPa, Liquid; for viscosity: Falling or rolling sphere viscometry; for mass density: Vibrating tube method

OC1CCCC1 [cyclopentanol] + CC1CCCCC1
Conditions	mass density [kg/m3]	viscosity [mPa·s]
293.15 K, x2 = 0	946.99	11.88
293.15 K, x2 = 0.0995	924.17	7.639
293.15 K, x2 = 0.2005	902.36	4.929
293.15 K, x2 = 0.2971	882.38	3.505
293.15 K, x2 = 0.4001	862.34	2.41
293.15 K, x2 = 0.5014	843.89	1.793
293.15 K, x2 = 0.5994	827.06	1.396
293.15 K, x2 = 0.6828	813.6	1.166
293.15 K, x2 = 0.7949	796.76	0.96
293.15 K, x2 = 0.8975	782.42	0.826
298.15 K, x2 = 0	943.05	9.722
298.15 K, x2 = 0.0995	920.12	6.316
298.15 K, x2 = 0.2005	898.22	4.183
298.15 K, x2 = 0.2971	878.17	3.03
298.15 K, x2 = 0.4001	858.07	2.123
298.15 K, x2 = 0.5014	839.58	1.602
298.15 K, x2 = 0.5994	822.73	1.268
298.15 K, x2 = 0.6828	809.25	1.071
298.15 K, x2 = 0.7949	792.38	0.89
298.15 K, x2 = 0.8975	778.04	0.772
303.15 K, x2 = 0	939.05	8.068
303.15 K, x2 = 0.0995	916.02	5.48
303.15 K, x2 = 0.2005	894.03	3.587
303.15 K, x2 = 0.2971	873.91	2.644
303.15 K, x2 = 0.4001	853.76	1.885
303.15 K, x2 = 0.5014	835.24	1.445
303.15 K, x2 = 0.5994	818.37	1.16
303.15 K, x2 = 0.6828	804.87	0.989
303.15 K, x2 = 0.7949	787.97	0.827
303.15 K, x2 = 0.8975	773.63	0.722
308.15 K, x2 = 0	935	7.077
308.15 K, x2 = 0.0995	911.87	4.66
308.15 K, x2 = 0.2005	889.79	3.099
308.15 K, x2 = 0.2971	869.61	2.324
308.15 K, x2 = 0.4001	849.41	1.685
308.15 K, x2 = 0.5014	830.86	1.312
308.15 K, x2 = 0.5994	813.97	1.065
308.15 K, x2 = 0.6828	800.45	0.916
308.15 K, x2 = 0.7949	783.54	0.771
308.15 K, x2 = 0.8975	769.19	0.677
313.15 K, x2 = 0	930.91	6.04
313.15 K, x2 = 0.0995	907.67	4.046
313.15 K, x2 = 0.2005	885.51	2.695
313.15 K, x2 = 0.2971	865.27	2.055
313.15 K, x2 = 0.4001	845.02	1.514
313.15 K, x2 = 0.5014	826.44	1.196
313.15 K, x2 = 0.5994	809.53	0.982
313.15 K, x2 = 0.6828	796	0.851
313.15 K, x2 = 0.7949	779.07	0.721
313.15 K, x2 = 0.8975	764.73	0.636
318.15 K, x2 = 0	926.75	5.19
318.15 K, x2 = 0.0995	903.41	3.487
318.15 K, x2 = 0.2005	881.17	2.361
318.15 K, x2 = 0.2971	860.88	1.828
318.15 K, x2 = 0.4001	840.59	1.368
318.15 K, x2 = 0.5014	821.99	1.093
318.15 K, x2 = 0.5994	805.06	0.907
318.15 K, x2 = 0.6828	791.51	0.793
318.15 K, x2 = 0.7949	774.57	0.677
318.15 K, x2 = 0.8975	760.23	0.6
323.15 K, x2 = 0	922.53	4.441
323.15 K, x2 = 0.0995	899.09	3.037
323.15 K, x2 = 0.2005	876.78	2.081
323.15 K, x2 = 0.2971	856.11	1.635
323.15 K, x2 = 0.4001	836.11	1.241
323.15 K, x2 = 0.5014	817.49	1.004
323.15 K, x2 = 0.5994	800.54	0.842
323.15 K, x2 = 0.6828	786.98	0.74
323.15 K, x2 = 0.7949	770.03	0.636
323.15 K, x2 = 0.8975	755.7	0.566
328.15 K, x2 = 0	918.24	3.83
328.15 K, x2 = 0.0995	894.72	2.674
328.15 K, x2 = 0.2005	872.33	1.843
328.15 K, x2 = 0.2971	851.95	1.472
328.15 K, x2 = 0.4001	831.58	1.13
328.15 K, x2 = 0.5014	812.94	0.924
328.15 K, x2 = 0.5994	795.97	0.782
328.15 K, x2 = 0.6828	782.41	0.692
328.15 K, x2 = 0.7949	765.45	0.599
328.15 K, x2 = 0.8975	751.14	0.537
333.15 K, x2 = 0	913.89	3.312
333.15 K, x2 = 0.0995	890.28	2.366
333.15 K, x2 = 0.2005	867.83	1.642
333.15 K, x2 = 0.2971	847.4	1.329
333.15 K, x2 = 0.4001	827	1.033
333.15 K, x2 = 0.5014	808.34	0.853
333.15 K, x2 = 0.5994	791.36	0.731
333.15 K, x2 = 0.6828	777.79	0.65
333.15 K, x2 = 0.7949	760.84	0.566
333.15 K, x2 = 0.8975	746.55	0.51
338.15 K, x2 = 0	909.48	2.886
338.15 K, x2 = 0.0995	885.78	2.109
338.15 K, x2 = 0.2005	863.28	1.471
338.15 K, x2 = 0.2971	842.8	1.205
338.15 K, x2 = 0.4001	822.37	0.948
338.15 K, x2 = 0.5014	803.69	0.79
338.15 K, x2 = 0.5994	786.71	0.683
338.15 K, x2 = 0.6828	773.13	0.611
338.15 K, x2 = 0.7949	756.2	0.536
338.15 K, x2 = 0.8975	741.93	0.486
343.15 K, x2 = 0	904.99	2.53
343.15 K, x2 = 0.0995	881.21	1.879
343.15 K, x2 = 0.2005	858.67	1.326
343.15 K, x2 = 0.2971	838.13	1.108
343.15 K, x2 = 0.4001	817.69	0.873
343.15 K, x2 = 0.5014	799	0.734
343.15 K, x2 = 0.5994	782.01	0.641
343.15 K, x2 = 0.6828	768.43	0.577
343.15 K, x2 = 0.7949	751.51	0.517
343.15 K, x2 = 0.8975	737.27	0.464
